From paper PMC5120274, “Characterization of the Annonaceous acetogenin, annonacinone, a natural product inhibitor of plasminogen activator inhibitor-1” (Scientific Reports, 2016)
“And” between values parts separate entries of the source, which are not always exact repeats. Equal entries are not always repeated. Where two headings read alike, the source gives them in different places.

How the values were obtained:
[1] = target: T1, PAI-1 (Homo sapiens, UniProt P05121); assay: chromogenic screening assay: rate of tPA inhibition by PAI-1 (spectrozyme tPA hydrolysis); format: biochemical; conditions: for kapp 50 μM (apparent rate constant of tPA inhibition by PAI-1): compound 50 μM, 1% DMSO, PAI-1 20 nM, tPA 10 nM, DMSO 1% control 4.4 ± 0.3 × 10^-3
T1 construct: purchased Stago BNL (Asnières sur Seine, FR)
T1 sequence (P05121 24-402): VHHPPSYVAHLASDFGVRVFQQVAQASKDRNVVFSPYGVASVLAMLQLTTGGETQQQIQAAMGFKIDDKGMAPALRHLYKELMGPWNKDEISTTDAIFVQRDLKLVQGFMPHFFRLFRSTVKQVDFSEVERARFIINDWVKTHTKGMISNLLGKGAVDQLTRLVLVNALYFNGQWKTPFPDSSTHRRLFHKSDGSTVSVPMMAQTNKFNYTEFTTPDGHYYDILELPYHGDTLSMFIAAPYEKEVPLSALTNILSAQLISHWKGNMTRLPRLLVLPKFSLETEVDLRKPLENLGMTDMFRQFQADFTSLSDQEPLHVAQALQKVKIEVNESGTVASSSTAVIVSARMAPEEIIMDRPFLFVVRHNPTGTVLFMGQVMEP
Method: Compounds from our local collection BioCIS and from the Prestwick compound library (Prestwick chemicals, Illkirch, FR), a collection containing only FDA approved drugs (around 4000 compounds in total) were tested in a chromogenic assay measuring the inhibition rate of tPA-catalyzed spectrozyme® tPA hydrolysis in the presence of PAI-1. Compounds (20 μL, final concentration 50 μM, 1% DMSO) were dispensed in a 96 well half area Greiner plate. A mixture containing 20 μL of PAI-1 (final concentration 20 nM) and 80 μL of Spectrozyme-tPA (final concentration 400 μM) was then added, and the mixture pre-incubated for 45 minutes at 37 °C. At the end of pre-incubation time, 90 μL of the mixture were added to another 96 well half area plate containing 10 μL tPA (final concentration 10 nM). The kinetic was then measured at 405 nm for 45 min at 37 °C in an Envision microplate reader. Progress curves were fitted using the pseudo first order equation to determine the apparent rate constant k.

[2] = test system: vitronectin-bound PAI-1; conditions: cited from earlier work
[3] = target: T1, PAI-1; assay: thromboelastography (TEG) on pooled human plasma with tPA and PAI-1; format: biochemical; conditions: compound 50 μM, tPA 9 nM + PAI-1 22 nM
Method: 20 μL of CaCl2 (0.2 M), 10 μL of PAI-1 (final concentration 22 nM) and 10 μL of tested compounds were added in a TEG cup and pre-incubated for 20 min at room temperature. On the other hand, 1 mL of pooled citrated normal human plasma (pool of at least 10 healthy donors) was added to a vial containing 20 μL of Kaolin. 680 μl of the plasma/Kaolin mixture were then added to 20 μL of tPA (final concentration 9 nM). At the end of pre-incubation time, 320 μL of the plasma/tPA/kaolin mixture were transferred into the TEG cup and the thromboelastogram measured.

[4] = chromogenic screening assay, without vitronectin, mean ± SEM, n = 3, read-out: IC50

CCCCCCCCCC[C@H](O)[C@H]1CC[C@H]([C@H]2CC[C@H]([C@H](O)CCCCCCCCCCC3CC(CC(C)=O)C(=O)O3)O2)O1 (stereo partly shown) [Isorolliniastatin-2]
IC50 [1, 4]: 10 ± 2 µM
kapp 50 μM (apparent rate constant of tPA inhibition by PAI-1) ([1]; mean ± SEM, n = 3): 8.5 ± 0.6 × 10^-4 s^-1

CCCCCc1c(-c2ccc3cc(OCc4nnn[nH]4)ccc3c2)n(Cc2ccccc2)c2ccccc12 [PAI-749]
activity against PAI-1 bound to vitronectin [2]: devoid of activity

CCCCCCCCCCCC[C@@H](O)[C@H]1CC[C@H]([C@H](O)CCCC[C@H](O)CCCCC[C@@H](O)CC2=CC(C)OC2=O)O1 (stereo partly shown) [Annonacine]
IC50 [1]: 6 ± 3 µM
kapp 50 μM (apparent rate constant of tPA inhibition by PAI-1) ([1]; mean ± SEM, n = 3): 6.4 ± 0.4 × 10^-4 s^-1

CCCCCCCCCC[C@H](O)[C@H]1CC[C@H]([C@H]2CC[C@H]([C@H](O)CCCCCCCCCCC(O)CC3=C[C@H](C)OC3=O)O2)O1 (stereo partly shown) [Rolliniastatin-2]
IC50 [1, 4]: 19 ± 1 µM
kapp 50 μM (apparent rate constant of tPA inhibition by PAI-1) ([1]; mean ± SEM, n = 3): 7.5 ± 0.5 × 10^-4 s^-1

CCCCCCCCCCCC[C@@H](O)[C@H]1CC[C@H]([C@H](O)CCCC[C@H](O)CCCCCC2CC(CC(C)=O)C(=O)O2)O1 (stereo partly shown) [Isoannonacine]
IC50 [1]: > 50 µM
kapp 50 μM (apparent rate constant of tPA inhibition by PAI-1) ([1]; mean ± SEM, n = 3): 1.1 ± 0.1 × 10^-3 s^-1

O=C(O)C(=O)c1cn(Cc2ccccc2)c2ccc(-c3ccc(OC(F)(F)F)cc3)cc12 [Tiplaxtinin, reference compound]
kapp 50 μM (apparent rate constant of tPA inhibition by PAI-1) ([1]; mean ± SEM, n = 3): 1.7 ± 0.3 × 10^-3 s^-1
kapp 50 μM (apparent rate constant of tPA inhibition by PAI-1) ([1]; mean ± SEM, n = 3, listed as tiplaxtinin): 1.7 ± 0.3 × 10^−3 s^-1
activity against PAI-1 bound to vitronectin [2]: devoid of activity
activity against vitronectin-bound PAI-1 [2]: inactive
Angle [3]: 66.2 °
K (clot formation time) [3]: 1.8 min
MA (maximal amplitude) [3]: 24.5 mm
R (clotting time) [3]: 7 min
LY30 (clot lysis 30 minutes after maximal amplitude) ([3]; tPA alone 94.3%, tPA + PAI-1 0%): 21.9%
LY60 (clot lysis 60 minutes after maximal amplitude) ([3]; tPA alone 96.8%, tPA + PAI-1 0%): 50% and 50.2%
